In publication PMC12163684, “Gunacins: Novel Benzo[g]chromene Derivatives from the Fungus Exobasidium sp. and Their Potent Anti-Leishmania and Trypanosoma Activities” (ACS Omega, 2025):
Values after ≈ are worked out from the molar mass of the structure shown. Read-outs that look alike come from different tables or passages of the source.

Assays:
[1] = test system: C. neoformans CCF 1081; assay: Minimum inhibitory concentration (MIC) testing, serial binary dilution in 96-well plates; format: cell-based; details: Cryptococcus neoformans, CCF1081; 24 h in the dark; n.d. = activity not detected; highest tested concentration 66.7 μM
Experimental: (§1) Minimum inhibitory concentration (MIC) testing of the extracts was performed using 96-well polypropylene plates against four different microorganisms: the Gram-positive bacterium K. rhizophila ATCC 9341, the Gram-negative bacterium E. coli ATCC 3988, and the yeasts C. albicans CCM 8215 and C. neoformans CCF 1081.
(§2) A working inoculum of each microorganism was prepared as follows: for E. coli and K. rhizophila, the inoculum was grown in LB medium (LB Broth, 25 g/L, incubated at 36 °C); for C. albicans and C. neoformans, YM6.3 medium (maltose extract 10 g, glucose 4 g, yeast extract 4 g per 1 L distilled water, incubated at 24 °C) with a cell concentration of approximately 5 × 10^5 cells/mL for all microorganisms was used.
(§3) Chloramphenicol served as a positive control for bacteria, while cycloheximide was used as a positive control for fungi. The gradient of the test substances was established by serial binary dilution across the wells. The MIC was determined by identifying the lowest concentration at which no live microorganisms were present. Cultivation was performed in the dark for 24 h.

[2] = test system: K. rhizophila ATCC 9341; assay: as above; format: cell-based; details: Kocuria rhizophila, ATCC9341; 24 h in the dark; lowest concentration with no live microorganisms
Experimental: as §1, §2, §3

[3] = test system: Jurkat T-lymphocyte cell line; assay: Cytotoxicity, Hoechst 33258 staining and flow cytometry (FACS LSRII); format: cell-based; details: 24 h incubation, flow cytometry, read-out: EC50 ± SEM Jurkat
Experimental: To evaluate the cytotoxicity of the isolated compounds, the immortalized T-lymphocyte cell line Jurkat was cultured in 96-well polypropylene U-bottom plates at a density of approximately 2 × 10^5 cells per well in RPMI1640 medium, with a total volume of 300 μL per well. Cells cultured in RPMI1640 medium alone and in RPMI1640 medium with DMSO were used as negative controls. After 24 h of incubation with the isolated compounds, dissolved in 10 mM DMSO, the cells were washed with PBS solution containing 0.02% gelatin and 0.01% sodium azide. Following this, the cells were stained with the fluorescent dye Hoechst 33258 and analyzed by flow cytometry using a FACS LSRII instrument (BD Biosciences, San Jose, USA) and FlowJo 10 software (Tree Star, Ashland, USA). Initial assays were conducted at concentrations of 5, 25, 50, 100, and 125 μM, with subsequent measurements at concentrations adjusted based on the results of the initial assays, each performed in triplicate. EC50 values were determined using Quest Graph software and the dose–response four parameters regression model. The EC50 values were determined from three independent experiments.

[4] = test system: T. b. evansi AnTat 3/3; assay: Anti-trypanosomal activity, resazurin (AB assay), bloodstream form; format: cell-based, T. brucei evansi; details: Trypanosoma brucei, 72 h, axenic, 48 h + 24 h resazurin
Experimental: The bloodstream forms of T. b. gambiense LiTat 1.3, T. b. brucei 427, and T. b. evansi AnTat 3/3 were grown in HMI-11 medium pH 7.3 supplemented with 36 mM sodium bicarbonate, 100 U/mL penicillin/streptomycin, and 10% fetal bovine serum at 37 °C and 5% CO2. The bloodstream form of Trypanosoma congolense IL3000 (generous gift from Liam Morrison) was cultured in TcBSF-1 medium pH 7.3 supplemented with 26 mM sodium bicarbonate, 25 mM HEPES, 5.5 mM glucose, 1 mM sodium pyruvate, 0.04 mM adenosine, 0.1 mM hypoxanthine, 0.02 mM thymidine, 0.02 mM bathocuproine, 2 mM L-glutamine, 0.2 mM 2-mercaptoethanol, 100 U/ml penicillin/streptomycin, and 20% goat serum New Zealand origin (Gibco) at 34 °C, 5% CO2. The assay for anti-trypanosomal activity was performed using the resazurin sodium salt dye (AB Assay) according to the published protocol in a 96-well plate format. Parasites at a number of 5 × 10^3 per well (T. b. brucei and T. b. gambiense) or 1 × 10^4 per well (T. b. evansi) were incubated with different drug concentrations (2-fold serial dilutions) in a volume of 200 μL of the medium. Medium with 1% DMSO (the highest concentration of the solvent used in the assay) was used to confirm no effect of the solvent on the cell growth. The plates were incubated for 48 h at the appropriate temperature. Then, 20 μL of resazurin sodium salt solution (0.125 mg/mL in 1× PBS, pH 7. 4) was added to each well, and the cells were incubated for another 24 h under the same conditions. The fluorescence signal was quantified using a Tecan Infinite M200 plate reader at excitation and emission wavelengths of 560 and 590 nm, respectively. The EC50 values were calculated using GraphPad Prism 9.5.1 by nonlinear regression with a variable slope. Each EC50 value is the mean ± standard error of the mean of three separate experiments performed in duplicate.

[5] = test system: RAT2 fibroblast cell line; assay: Cytotoxicity on proliferating cells, crystal violet assay, OD590; format: cell-based; details: 24 h treatment, read-out: EC50 ± SEM RAT2
Experimental: (§4) MDCK and RAT cells were cultured in DMEM with 10% FBS at 37 °C in a 5% CO2 atmosphere as described previously. , To assess the toxic effects of the compounds on proliferating cells, cells were seeded in 24-well plates for 24 h to reach ∼15% confluence, and cells were treated in triplicate with increasing concentrations of the isolated compounds for an additional 24 h. Cells were washed with 1× PBS, fixed in staining solution (0.5% crystal violet, 20% methanol) for 10 min, and gently washed five times in 1× PBS. The fixed cells were then dissolved in lysis solution (0.1 M sodium citrate, 25% ethanol, pH 4.2) for 30 min, transferred to a 96-well plate in H2O, and the OD^590 was determined. EC50 values were determined using GraphPad Prism software and the dose–response fit equation. The EC50 values were determined from two independent experiments. Additionally, the impact of the isolated substances on the morphology of the HeLa adenocarcinoma cell line and primary human skin fibroblasts was examined by using fluorescence microscopy. Cells were cultured in DME medium supplemented with 10% FCS (Gibco, Invitrogen, Carlsbad, USA) on glass coverslips in 24-well plates until reaching approximately 50% confluence. The cells were treated with varying concentrations of isolated compounds dissolved in DMSO. Wells containing DMEM with DMSO served as the negative control. After 24 h cultivation, the cells were incubated with MitoTracker Red CMXRos (10 min) to label mitochondria, then fixed with 3.7% paraformaldehyde in PBS (20 min, room temperature), permeabilized with 0.1% Triton X-100 in PBS, and blocked with 1% BSA in PBS. The cells were then stained with Phalloidin-Alexa Fluor488 conjugate. All fluorescence reagents were purchased from Molecular Probes, Invitrogen, Carlsbad, CA, USA. Nuclei were stained with Fluoroshield DAPI (Sigma-Aldrich), and cells were examined using an IX71 microscope equipped with a DP70 camera and a 40× objective. Assays were performed at concentrations of 5, 25, 50, 100, and 125 μM.

[6] = test system: Madin–Darby canine kidney (MDCK) epithelial cell line; assay: as above; format: cell-based; details: Canis lupus familiaris, 24 h treatment, read-out: EC50 ± SEM MDCK
Experimental: as §4

Row | SMILES | MIC [1] | MIC [2] | EC50 ([3]; Homo sapiens, Jurkat, 24 h) | EC50 [4] | EC50 ([5]; Rat2, 24 h) | EC50 [6] | EC50 [3] | EC50 [5]
1 | COc1cc(O)c2c(c1)C(=O)C1=C(C2=O)[C@H](O)[C@@H](O)[C@@H](C)O1 (relative stereo) [Compound 3, (2R,3R,4S)-3,4,6-trihydroxy-8-methoxy-2-methyl-3,4-dihydro-2H-benzo[g]chromene-5,10-dione] | > 66.7 µM | 8.3 µM (≈ 2.54 µg/mL) | 16500 ± 1300 nM | 4200 nM | 5100 ± 700 nM | 4700 ± 600 nM |  | 
2 | COc1cc(O)c2c(c1)C(=O)C1=C(C2=O)[C@@H](O)[C@@H](OC(C)=O)[C@@H](C)O1 [Compound 5, (2R,3R,4R)-4,6-dihydroxy-8-methoxy-2-methyl-5,10-dioxo-3,4,5,10-tetrahydro-2H-benzo[g]chromen-3-yl acetate] | 33.3 µM | 2.1 µM | ~1500 nM | 40 nM | 30 nM | 100 nM | 1600 ± 100 nM | 
3 | COc1cc(O)c2c(c1)C(=O)C1=C(C2=O)[C@@H](OC(C)=O)[C@@H](O)[C@@H](C)O1 [Compound 1, (2R,3S,4R)-3,6-dihydroxy-8-methoxy-2-methyl-5,10-dioxo-3,4,5,10-tetrahydro-2H-benzo[g]chromen-4-yl acetate] | 33.3 µM | 1 µM | ~1500 nM | 30 nM | 100 nM | 100 nM | 1700 ± 100 nM | 60 nM
4 | COc1cc(O)c2c(c1)C(=O)C1=C(C[C@@H](OC(C)=O)[C@@H](C)O1)C2=O [Compound 7, (2R,3R)-6-hydroxy-8-methoxy-2-methyl-5,10-dioxo-3,4,5,10-tetrahydro-2H-benzo[g]chromen-3-yl acetate] | 33.3 µM | 4.2 µM | 93200 ± 5900 nM | 700 nM | 6000 ± 300 nM | 5600 ± 1100 nM |  | 
